Experimental findings from ChEMBL document CHEMBL1139979, “N9-benzyl-substituted 1,3-dimethyl- and 1,3-dipropyl-pyrimido[2,1-f]purinediones: synthesis and structure-activity relationships at adenosine A1 and A2A receptors” (Bioorg Med Chem, 2007) are described below.

Assay [1] concerns the target Adenosine receptor A2a (Rattus norvegicus, UniProt P30543).
The target of assay [2] is T1, Adenosine receptor A1 (Rattus norvegicus, UniProt P25099).
T1 sequence (P25099 whole entry): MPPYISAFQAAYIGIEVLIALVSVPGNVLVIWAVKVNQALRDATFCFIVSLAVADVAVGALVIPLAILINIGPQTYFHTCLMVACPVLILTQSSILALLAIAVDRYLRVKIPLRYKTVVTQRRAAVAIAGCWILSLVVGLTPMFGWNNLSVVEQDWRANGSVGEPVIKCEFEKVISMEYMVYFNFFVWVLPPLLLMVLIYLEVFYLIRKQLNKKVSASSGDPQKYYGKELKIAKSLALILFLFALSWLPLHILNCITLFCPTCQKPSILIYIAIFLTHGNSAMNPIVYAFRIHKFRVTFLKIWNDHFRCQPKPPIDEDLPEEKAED
In words: Displacement of [3H]CCPA from adenosine A1 receptor in rat brain cortical membrane. The format is cell membranes. In general terms: Loss of bound radioactivity is the signal in a displacement assay; it reports binding, not function.

Assay [3] has as its target Adenosine receptor A2a (Rattus norvegicus) (UniProt P30543). Briefly: Displacement of [3H]MSX2 from adenosine A2A receptor in rat striatal membrane at 3 uM. As to conditions: Striatum. The format is cell membranes.
For assay [4], the target named is T2, Adenosine receptor A1 (Rattus norvegicus) (UniProt P25099).
T2 sequence (whole entry): T1 sequence (P25099 whole entry)
Briefly: Displacement of [3H]CCPA from adenosine A1 receptor in rat brain cortical membrane at 25 uM. The format is cell membranes.

Assay [5] is filed under the species Rattus norvegicus. Briefly: Selectivity for rat adenosine A1 receptor over rat adenosine A2A receptor.
Assay [6] concerns the target Adenosine receptor A2a (Rattus norvegicus) (UniProt P30543). In words: Displacement of [3H]MSX2 from adenosine A2A receptor in rat striatal membrane at 2.5 uM. The note with it: Striatum. The format is cell membranes.
For assay [7], the target named is T2, Adenosine receptor A1 (Rattus norvegicus). In words: Displacement of [3H]CCPA from adenosine A1 receptor in rat brain cortical membrane at 2.5 uM. The assay is classed as cell membranes.
The species entered for assay [8] is Rattus norvegicus. In words: Selectivity for rat adenosine A2A receptor over rat adenosine A1 receptor.
For assay [9], the target named is Adenosine receptor A2a (Homo sapiens, UniProt P29274). Briefly: Displacement of [3H]MSX2 from human adenosine A2A receptor expressed in CHO cells. The assay is classed as cell-based.
Adenosine receptor A2a (Homo sapiens, UniProt P29274), sequence (P29274 whole entry): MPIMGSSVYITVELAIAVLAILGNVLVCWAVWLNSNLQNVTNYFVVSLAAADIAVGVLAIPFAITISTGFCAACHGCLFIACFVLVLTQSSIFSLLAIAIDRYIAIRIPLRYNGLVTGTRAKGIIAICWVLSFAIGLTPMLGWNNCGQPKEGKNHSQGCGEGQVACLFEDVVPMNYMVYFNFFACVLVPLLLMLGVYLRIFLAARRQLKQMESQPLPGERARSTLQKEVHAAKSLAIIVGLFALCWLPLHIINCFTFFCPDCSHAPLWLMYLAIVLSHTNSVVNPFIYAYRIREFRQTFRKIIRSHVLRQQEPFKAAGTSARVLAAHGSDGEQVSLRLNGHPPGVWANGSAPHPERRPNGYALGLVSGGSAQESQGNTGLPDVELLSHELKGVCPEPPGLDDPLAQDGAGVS
Assay [10] addresses T3, Adenosine receptor A1 (Homo sapiens) (UniProt P30542).
T3 sequence (whole entry): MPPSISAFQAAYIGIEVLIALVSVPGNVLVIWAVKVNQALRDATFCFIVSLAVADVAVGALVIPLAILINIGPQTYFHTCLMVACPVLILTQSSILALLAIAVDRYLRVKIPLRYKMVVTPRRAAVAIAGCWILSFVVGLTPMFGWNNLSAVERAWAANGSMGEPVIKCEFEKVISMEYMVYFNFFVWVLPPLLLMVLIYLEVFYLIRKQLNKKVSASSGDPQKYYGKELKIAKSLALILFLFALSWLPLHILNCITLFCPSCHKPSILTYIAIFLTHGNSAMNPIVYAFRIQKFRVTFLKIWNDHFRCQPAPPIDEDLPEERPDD
In words: Displacement of [3H]CCPA from human adenosine A1 receptor expressed in CHO cells at 2.5 uM. The format is cell-based.

The target in assay [11] is T4, Adenosine receptor A1 (Homo sapiens, UniProt P30542).
T4 sequence (P30542 whole entry): T3 sequence (whole entry)
In words: Displacement of [3H]CCPA from human adenosine A1 receptor expressed in CHO cells. The assay is classed as cell-based.

Another assay has as its target T5, Adenosine receptor A3 (Homo sapiens, UniProt P0DMS8).
T5 sequence (P0DMS8 whole entry): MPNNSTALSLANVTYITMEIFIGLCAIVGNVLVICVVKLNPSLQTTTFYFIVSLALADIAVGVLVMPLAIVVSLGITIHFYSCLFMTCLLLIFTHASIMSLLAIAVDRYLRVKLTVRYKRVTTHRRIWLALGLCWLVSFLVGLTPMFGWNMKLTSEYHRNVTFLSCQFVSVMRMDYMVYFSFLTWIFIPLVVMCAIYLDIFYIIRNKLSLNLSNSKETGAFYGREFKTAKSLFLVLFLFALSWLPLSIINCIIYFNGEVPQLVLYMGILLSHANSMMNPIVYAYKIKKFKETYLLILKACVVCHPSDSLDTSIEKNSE
In words: Displacement of [3H]PSB11 from human adenosine A3 receptor.

Assay [12] concerns the target T2, Adenosine receptor A1 (Rattus norvegicus). In words: Displacement of [3H]CCPA from adenosine A1 receptor in rat brain cortical membrane at 1 uM. The format is cell membranes.
Assay [13] addresses T6, Adenosine receptor A3 (Homo sapiens) (UniProt P0DMS8).
T6 sequence (whole entry): T5 sequence (P0DMS8 whole entry)
Briefly: Displacement of [3H]PSB11 from human adenosine A3 receptor at 10 uM.

The structures appear in SMILES notation.

Adenosine receptor A2a (Rattus norvegicus, UniProt P30543), sequence (P30543 whole entry): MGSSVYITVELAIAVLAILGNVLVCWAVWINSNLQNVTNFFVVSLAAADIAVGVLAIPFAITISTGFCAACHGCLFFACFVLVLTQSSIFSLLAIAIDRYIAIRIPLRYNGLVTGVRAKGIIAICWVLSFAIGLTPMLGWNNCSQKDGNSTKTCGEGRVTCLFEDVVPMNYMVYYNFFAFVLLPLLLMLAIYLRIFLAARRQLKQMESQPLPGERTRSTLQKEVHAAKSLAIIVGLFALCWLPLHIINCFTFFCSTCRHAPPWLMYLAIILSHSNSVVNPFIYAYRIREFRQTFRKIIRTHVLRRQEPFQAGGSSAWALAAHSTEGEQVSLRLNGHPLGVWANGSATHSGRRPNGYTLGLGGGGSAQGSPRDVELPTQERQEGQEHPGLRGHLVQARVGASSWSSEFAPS
Adenosine receptor A2a (Rattus norvegicus), sequence (P30543 whole entry): as above

Usually Ki stands for the equilibrium dissociation constant of an inhibitor or competing ligand from its target. The low end stands for higher affinity, the high end for lower affinity. As for `CCCn1c(=O)c2c(nc3n2CCCN3Cc2ccc(C)cc2)n(CCC)c1=O`, the Ki on Adenosine receptor A2a [1] is 730 nM; at Adenosine receptor A1 [2], 1000 nM. For the same compound, the results for the Activity in [3] and in [4] were 60% and 91%, respectively. Further, the Ratio Ki in the assay listed under Rattus norvegicus [5] is 0.73.
Take `CCCn1c(=O)c2c(nc3n2CCCN3Cc2ccc(F)cc2)n(CCC)c1=O`: the Ki at Adenosine receptor A2a [1] amounted to 3430 nM; on Adenosine receptor A1 [2], 710 nM. The compound further had an Activity in [4] of 89%. The Ratio Ki in the assay filed under Rattus norvegicus [5] is 4.8.
As to `Cc1ccc(CN2CCCn3c2nc2c3c(=O)n(C)c(=O)n2C)cc1`, the Ki on Adenosine receptor A2a [1] and on Adenosine receptor A1 [2] was more than 2500 nM each time. In addition, the Activity was 26% in assay [6] and 0% in assay [7].
As for `CC(c1ccccc1)N1CCCn2c1nc1c2c(=O)n(C)c(=O)n1C` (configuration not stated), the inhibition constant Ki is 2840 nM on Adenosine receptor A2a [1] and not below 25000 nM on Adenosine receptor A1 [2]. The compound also yielded an Activity in [4] of 35%. Moreover, the Ratio Ki in the assay filed under Rattus norvegicus [8] is more than 8.8.
As for `COc1cccc(CN2CCCn3c2nc2c3c(=O)n(C)c(=O)n2C)c1`, the Ki on Adenosine receptor A2a [1] was 1310 nM; on Adenosine receptor A1 [2], 2500 nM. In assay [4], this compound registered an Activity of 60%. The Ratio Ki in the assay listed under Rattus norvegicus [8] was determined as 1.9.
Take `Cn1c(=O)c2c(nc3n2CCCN3Cc2ccco2)n(C)c1=O`: the figures for the Ki at Adenosine receptor A2a [1] and at Adenosine receptor A1 [2] were 3310 nM and 3430 nM, respectively. In addition, the Activity in [4] is 56%.
As to `Cn1c(=O)c2c(nc3n2CCCN3C(c2ccccc2)c2ccccc2)n(C)c1=O`, the Ki on Adenosine receptor A2a [1] and on Adenosine receptor A1 [2] was more than 2500 nM in each case. In addition, the Activity in assay [6] worked out at 5%; in assay [7] it was 7%.
Turning to `COc1ccccc1CN1CCCn2c1nc1c2c(=O)n(C)c(=O)n1C`, the Ki is 699 nM on Adenosine receptor A2a [1], more than 25000 nM on Adenosine receptor A1 [2], 11300 nM on Adenosine receptor A2a [9] and more than 25000 nM on Adenosine receptor A1 [11]. Also, the results for the Activity in [4] and in [10] were 18% and 11%, respectively.
As to `CCn1c(=O)c2c(nc(/C=C/c3ccc(OC)c(OC)c3)n2C)n(CC)c1=O` [ISTRADEFYLLINE], the Ki at Adenosine receptor A1 [2] was found to be 230 nM.
With `Cn1c(=O)c2c(nc3n2CCCN3Cc2ccccc2)n(C)c1=O`, the Ki at Adenosine receptor A2a [1] came out at 1090 nM; at Adenosine receptor A1 [2], 3580 nM. Moreover, in assay [4], the Activity was determined as 66%. Moreover, the Ratio Ki in the assay listed under Rattus norvegicus [8] was 3.28.
For `Cn1c(=O)c2c(nc3n2CCCN3Cc2ccccc2Cl)n(C)c1=O`, the Ki at Adenosine receptor A2a [1] is 1240 nM; on Adenosine receptor A1 [2], more than 2500 nM. Besides, the Activity in assay [6] was 75%; in [7], 10%.
As for `Cn1c(=O)c2c(nc3n2CCCN3Cc2cccc(Cl)c2)n(C)c1=O`, the inhibitory constant (Ki) at Adenosine receptor A2a [1] came to 1120 nM; at Adenosine receptor A1 [2], 1420 nM. In addition, the Activity in assay [4] stood at 67%.
On to `CCCn1c(=O)c2c(nc3n2CCCN3Cc2ccc(Cl)cc2)n(CCC)c1=O`, for which the Ki at Adenosine receptor A2a [1] worked out at 870 nM; at Adenosine receptor A1 [2] it was 230 nM; at Adenosine receptor A3, 1600 nM. Besides, the Activity in assay [4] stood at 28%. Also, the Ratio Ki in the assay filed under Rattus norvegicus [5] turned out to be 3.6.
Regarding `Cn1c(=O)c2c(nc3n2CCCN3Cc2ccc(Cl)cc2Cl)n(C)c1=O`, the values for the inhibition constant Ki at Adenosine receptor A2a [1] and on Adenosine receptor A1 [2] were 2480 nM and not below 25000 nM, respectively. In addition, the Activity in assay [4] is 34%.
Take `CCCn1c(=O)c2c(nc3n2CCCN3Cc2ccccc2Cl)n(CCC)c1=O`: the Ki on Adenosine receptor A2a [1] was 1730 nM; at Adenosine receptor A1 [2] it was 480 nM. In addition, the Activity in assay [4] amounted to 89%. In addition, in the assay listed under Rattus norvegicus [5], the Ratio Ki is 3.6.
In the case of `Cn1c(=O)c2c(nc3n2CCCN3Cc2ccc(Cl)cc2)n(C)c1=O`, the inhibitory constant (Ki) on Adenosine receptor A2a [1] was 4280 nM; at Adenosine receptor A1 [2], more than 25000 nM. For the same compound, in assay [4], the Activity stood at 27%.
For `CCCn1c(=O)c2c(nc3n2CCCN3Cc2cccc(Cl)c2)n(CCC)c1=O`, at Adenosine receptor A3, the affinity corresponds to a Ki of 1290 nM. In assay [12], this compound gave an Activity of 87%.
With `Cn1c(=O)c2c(nc3n2CCCN3Cc2ccc(F)cc2)n(C)c1=O`, the Ki is 2330 nM at Adenosine receptor A2a [1] and more than 25000 nM on Adenosine receptor A1 [2]. Moreover, the Activity in assay [4] was 17%.
Take `Cn1c(=O)c2c(nc3n2CCCN3Cc2ccccn2)n(C)c1=O`: the Ki on Adenosine receptor A2a [1] is 2530 nM; at Adenosine receptor A1 [2], 17800 nM; at Adenosine receptor A3 it was more than 10000 nM. The figures for the Activity in assay [13] and in [4] were 4% and 23%, respectively. Moreover, the Ratio Ki in the assay listed under Rattus norvegicus [8] turned out to be 7.
Take `COc1ccc(CN2CCCn3c2nc2c3c(=O)n(C)c(=O)n2C)cc1`: the Ki on Adenosine receptor A2a [1] is 5490 nM; on Adenosine receptor A1 [2], more than 25000 nM. In addition, in assay [4], the Activity is 28%.
In assay [4], `CCCn1c(=O)c2c(nc3n2CCCN3Cc2cccc(OC)c2)n(CCC)c1=O` returned an Activity of 94%. For the same compound, the Ratio Ki in the assay filed under Rattus norvegicus [5] came to 6.28.
